Measurements: patent US4457936A, “Use of hydroxyphenyl-thiazole-, -thiazoline- and -thiazolidine-carboxylic acids, for influencing the collagen metabolism” (Hoechst Aktiengesellschaft, priority 1980, dated 1984)
Like-named read-outs stand apart in the source and are kept apart here.

How the values were obtained:
lysyl hydroxylase = biological target: T1, lysyl hydroxylase (Homo sapiens, UniProt Q02809); test: enzyme test, hydroxylation of insufficiently hydroxylated collagen by lysyl hydroxylase (cell-free); type: biochemical
T1 sequence (Q02809 19-727): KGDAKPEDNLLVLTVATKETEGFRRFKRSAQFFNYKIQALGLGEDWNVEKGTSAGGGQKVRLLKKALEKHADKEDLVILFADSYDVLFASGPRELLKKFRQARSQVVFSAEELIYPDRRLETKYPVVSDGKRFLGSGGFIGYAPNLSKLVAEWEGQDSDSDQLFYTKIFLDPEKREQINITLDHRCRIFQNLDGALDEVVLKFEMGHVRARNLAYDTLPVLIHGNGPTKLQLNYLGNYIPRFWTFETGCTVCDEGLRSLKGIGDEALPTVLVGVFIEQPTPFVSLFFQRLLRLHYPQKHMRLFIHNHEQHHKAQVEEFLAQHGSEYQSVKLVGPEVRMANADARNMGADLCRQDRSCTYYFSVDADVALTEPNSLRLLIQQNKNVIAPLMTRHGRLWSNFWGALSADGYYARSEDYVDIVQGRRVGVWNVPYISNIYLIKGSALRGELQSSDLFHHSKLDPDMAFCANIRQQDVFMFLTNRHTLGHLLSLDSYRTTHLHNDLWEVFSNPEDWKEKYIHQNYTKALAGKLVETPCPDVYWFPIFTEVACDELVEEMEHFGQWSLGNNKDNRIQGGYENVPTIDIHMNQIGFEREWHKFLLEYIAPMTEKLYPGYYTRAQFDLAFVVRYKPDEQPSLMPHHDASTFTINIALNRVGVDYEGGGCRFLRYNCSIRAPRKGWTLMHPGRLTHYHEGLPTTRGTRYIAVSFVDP
From the text: (§1) The inhibiting effect of the substances in accordance with the invention on collagen biosynthesis can be examined in an enzyme test analogous to the method of B. Peterkofsky and R. DiBlasio [Anal. Biochem. 66, 279-286 (1975)]. In this test, insufficiently hydroxylated collagen is enzymatically hydroxylated in the presence of molecular oxygen, iron-II ions, alpha-ketoglutaric and ascorbic acid.
(§2) As enzymes, prolyl hydroxylase or lysyl hydroxylase can be used and applied in a cell-free medium. The effect of the substances of the invention can be measured furthermore in cell and tissue cultures.
(§3) The inhibiting effect (DI50) is that concentration at which the enzyme reaction is inhibited by 50%.

prolyl hydroxylase = prolyl hydroxylase (Homo sapiens, UniProt P13674); test: enzyme test, hydroxylation of insufficiently hydroxylated collagen by prolyl hydroxylase (cell-free); type: biochemical
From the text: as §1, §2, §3

collagen biosynthesis = test: inhibiting effect in cell culture; type: cell-based; settings: read-out: DI50 cell culture
From the text: as §2, §3

[1] = concentration at which the enzyme reaction is inhibited by 50%, first part of Table, read-out: DI50 lysylhydroxylase
[2] = concentration at which the enzyme reaction is inhibited by 50%, first part of Table, read-out: DI50 propyl-hydroxylase
[3] = second part of Table, column L (circled), read-out: DI50 L.circle.
[4] = second part of Table, P, read-out: DI50 P.circle.

prolyl hydroxylase, sequence (P13674 18-534): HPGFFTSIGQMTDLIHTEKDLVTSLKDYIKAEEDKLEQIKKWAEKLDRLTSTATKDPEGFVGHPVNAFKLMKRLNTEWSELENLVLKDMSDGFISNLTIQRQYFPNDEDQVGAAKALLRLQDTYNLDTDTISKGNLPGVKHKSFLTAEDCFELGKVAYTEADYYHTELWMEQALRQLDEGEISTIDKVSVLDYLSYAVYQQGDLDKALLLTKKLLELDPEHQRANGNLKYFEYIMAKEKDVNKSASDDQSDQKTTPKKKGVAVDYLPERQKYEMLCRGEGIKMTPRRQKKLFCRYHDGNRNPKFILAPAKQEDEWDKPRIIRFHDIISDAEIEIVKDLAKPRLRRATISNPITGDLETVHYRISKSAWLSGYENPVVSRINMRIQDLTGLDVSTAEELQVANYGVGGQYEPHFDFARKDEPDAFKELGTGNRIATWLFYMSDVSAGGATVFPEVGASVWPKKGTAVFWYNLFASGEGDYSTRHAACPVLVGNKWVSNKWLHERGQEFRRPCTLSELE
prolyl hydroxylase, sequence (P07237 18-508 partner): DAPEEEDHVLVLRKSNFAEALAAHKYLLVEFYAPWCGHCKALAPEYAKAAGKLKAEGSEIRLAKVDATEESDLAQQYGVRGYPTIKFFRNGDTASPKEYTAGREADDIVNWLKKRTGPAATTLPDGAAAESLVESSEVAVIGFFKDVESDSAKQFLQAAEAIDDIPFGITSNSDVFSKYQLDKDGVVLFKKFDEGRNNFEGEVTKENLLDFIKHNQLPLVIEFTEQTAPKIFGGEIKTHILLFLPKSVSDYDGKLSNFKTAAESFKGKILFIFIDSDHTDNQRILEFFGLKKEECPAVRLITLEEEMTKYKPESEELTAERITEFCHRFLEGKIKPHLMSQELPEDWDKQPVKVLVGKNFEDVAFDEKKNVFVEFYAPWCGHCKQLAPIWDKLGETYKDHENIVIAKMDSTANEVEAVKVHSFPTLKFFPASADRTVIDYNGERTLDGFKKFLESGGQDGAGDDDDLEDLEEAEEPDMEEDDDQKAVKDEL

Question: With `O=C(O)C1CSC(c2ccccc2O)=N1` (centres unmarked) as the compound, how does the IC50 (lysyl hydroxylase; [1]) read?
Answer: 28 µM

Question: And the IC50 (prolyl hydroxylase; [2])?
Answer: 20 µM

Question: For `Cc1ccc(O)c(C2=NC(C(=O)O)CS2)c1` (centres unmarked), which IC50 (lysyl hydroxylase; [1]) is on record?
Answer: 28 µM

Question: And the IC50 (collagen biosynthesis)?
Answer: 34 µM

Question: And the IC50 (prolyl hydroxylase; [2])?
Answer: 28 µM

Question: Which results are given for `Cc1ccc(O)c(-c2nc(C(=O)O)c(-c3ccccc3)s2)c1`?
Answer: IC50 (lysyl hydroxylase; [3]): 34 µM; IC50 (prolyl hydroxylase; [4]): 26 µM

Question: Which results are given for `Cc1ccc(O)c(-c2nc(C(=O)O)c(C(=O)O)s2)c1`?
Answer: IC50 (lysyl hydroxylase; [3]): 144 µM; IC50 (prolyl hydroxylase; [4]): 67 µM

Question: What does the source list for `O=C(O)C1CSC(c2cc(Cl)ccc2O)=N1` (centres unmarked)?
Answer: IC50 (lysyl hydroxylase; [1]): 12 µM; IC50 (collagen biosynthesis): 17 µM; IC50 (prolyl hydroxylase; [2]): 16 µM

Question: Which results are given for `O=C(O)c1csc(-c2cc(Cl)ccc2O)n1`?
Answer: IC50 (lysyl hydroxylase; [3]): 188 µM; IC50 (prolyl hydroxylase; [4]): 71 µM

Question: For `O=C(O)[C@@H]1CSC(c2cc(Br)cc(Br)c2O)N1` (some centres unmarked), which IC50 (lysyl hydroxylase; [1]) is on record?
Answer: 10 µM

Question: What about the IC50 (prolyl hydroxylase; [2]) of the same compound?
Answer: 50 to 100 µM

Question: Which results are given for `O=C(O)[C@@H]1CSC(c2ccccc2O)N1` (some centres unmarked)?
Answer: IC50 (lysyl hydroxylase; [1]): 28 µM; IC50 (prolyl hydroxylase; [2]): 28 µM

Question: How did the IC50 (lysyl hydroxylase; [3]) turn out when `O=C(O)c1nc(-c2ccc(O)cc2O)sc1-c1ccccc1` was run?
Answer: 21 µM

Question: What about the IC50 (prolyl hydroxylase; [4]) of the same compound?
Answer: 27 µM

Question: Which results are given for `O=C(O)c1csc(-c2cc(Cl)c3ccccc3c2O)n1`?
Answer: IC50 (lysyl hydroxylase; [3]): 31.6 µM; IC50 (prolyl hydroxylase; [4]): 28.2 µM

Question: How did the IC50 (lysyl hydroxylase; [1]) turn out when `Cc1ccc(O)c(-c2nc(C(=O)O)cs2)c1` was run?
Answer: 67 µM

Question: And the IC50 (prolyl hydroxylase; [2])?
Answer: 42 µM

Question: `Nc1ccc(O)c(-c2nc(C(=O)O)cs2)c1` was tested. Which IC50 (lysyl hydroxylase; [3]) did it give?
Answer: 29 µM

Question: And the IC50 (prolyl hydroxylase; [4])?
Answer: 5.6 µM

Question: `O=C(O)C1CSC(c2ccc(O)cc2O)=N1` (centres unmarked) was tested. Which IC50 (lysyl hydroxylase; [1]) did it give?
Answer: 16 µM

Question: And the IC50 (prolyl hydroxylase; [2])?
Answer: 26 µM

Question: With `O=C(O)[C@@H]1CSC(c2cc([N+](=O)[O-])ccc2O)N1` (some centres unmarked) as the compound, how does the IC50 (lysyl hydroxylase; [1]) read?
Answer: 50 to 100 µM

Question: What about the IC50 (prolyl hydroxylase; [2]) of the same compound?
Answer: 50 to 100 µM

Question: How did the IC50 (lysyl hydroxylase; [1]) turn out when `O=C(O)[C@@H]1CSC(c2cc(Cl)cc(Cl)c2O)N1` (some centres unmarked) was run?
Answer: 50 to 100 µM

Question: What about the IC50 (prolyl hydroxylase; [2]) of the same compound?
Answer: 50 to 100 µM
